{
  "source": "patent US20250051762A1",
  "about": "“PLATFORM USING DNA-ENCODED SMALL MOLECULE LIBRARIES AND RNA SELECTION TO DESIGN SMALL MOLECULES THAT TARGET RNA” (University of Florida Research Foundation, Incorporated, priority 2021, published 2025)",
  "key": {"[1]": {"target": "pri-miR-27a", "assay": "Competitive MST binding assay with unlabeled miR-27a precursor", "parameters": "species or system human", "conditions": "100 nM compound, Cy5-labeled Drosha site model", "description": "To measure the affinity of 9 for the 5′GAG/3′CCC loop in the context of pri-miR-27a, a competitive binding assay was used with a constant concentration of compound (100 nM) and the Cy5-labeled model of pri-miR-27a's Drosha site, and varying concentrations of unlabeled miR-27a precursor as reported by miRBase. (35) That is, the miR-27a precursor competes with the Cy5-labeled model of pri-miR-27a's Drosha site for binding 9. […] Thus, the compounds identified by using DEL-2DCS can bind avidly to biologically relevant RNA targets identified by Inforna.\nFor competitive binding assays, both WT and mutant pri-miR-27a RNAs were transcribed as previously described (see Table S6 for sequences). (11) The RNA was purified by gel electrophoresis and folded in 1× Binding Buffer at final concentration of 750 nM by heating at 60° C. for 5 min and then slowly cooling to room temperature. […] The resulting data were analyzed by SigmaPlot and fitted by Equation 2 to yield the competitive dissociation constant (Kd competitive).\nwhere F is the concentration of fluorescence-labeled RNA; unbound and bound refers to the thermophoresis signal at completely unbound and bound state of RNA, respectively; c is the concentration of the compound; f (c) is the thermophoresis signal at compound concentration of c; Kd is the dissociation constant. […]"}, "[2]": {"test_system": "pri-miR-27a", "assay": "RT-qPCR of pri- and mature miR-27a in MDA-MB-231 TNBC cells", "format": "cell-based, human", "conditions": "MDA-MB-231, RT-qPCR", "description": "Cell lines. Compounds were tested in MDA-MB-231 TNBC cells (HTB-26, ATCC), LNCaP metastatic prostate cancer cells (gifted from Junli Luo lab), MCF-7 (HTB-22, ATCC) breast cancer cells, HeLa cervical adenocarcinoma cells (CCL-2, ATCC), and MCF-10a, a model of healthy breast epithelial cells (CRL-10317, ATCC).\nCell culture and compound treatment. All cells were maintained at 37° C. with 5% CO2. MDA-MB-231 and LNCaP cells were cultured in RPMI 1640 medium with L-glutamine & 25 mM HEPES (Corning) supplemented with 10% (v/v) fetal bovine serum (FBS; Sigma) and 1× (v/v) Antibiotic-Antimycotic solution (Corning). MCF-7 and HeLa cells were cultured in DMEM medium with 4.5 g/L glucose (Corning), supplemented with 10% FBS, 1× (v/v) Glutagro (Corning), and 1× (v/v) Antibiotic-Antimycotic solution. MCF10a cells were cultured in DMEM/F12 50/50 with L-glutamine & 15 mM HEPES (Corning), supplemented with 10% FBS, 20 ng/mL human epidermal growth factor (Pepro Tech Inc.), […] hydrocortisone (Pfaltz & Bauer), 100 ng/mL cholera toxin (Sigma-Aldrich), 10 μg/mL insulin (Sigma-Aldrich), and 1× (v/v) Antibiotic-Antimycotic solution.\nMCF-10a cells were transfected with plasmids to express pri-miR-27a and mutant pri-miR-27a in 12- or 24-well plates with Lipofectamine 2000 per the manufacturer's protocol. For treatment of compounds, stocks were diluted in growth medium and added to cells for 48 h. The miRCURY miR-27a LNA inhibitor (QIAGEN, Cat #339121) was used as a positive control by diluting in growth medium to a final concentration of 1 nM. The miRCURY LNA Negative Control (QIAGEN, Cat #YI00199007-DDA) was used as a negative control, which has also diluted in growth medium to a final concentration of 1 nM.\nAnalysis of mRNA abundance: Each cell line was grown as a monolayer in 12- or 24-well plates and treated as described in “Cell culture and compound treatment”. After 48 h, the cells were lysed, and total RNA was harvested using a Zymo Quick RNA Miniprep Kit per the manufacturer's protocol. To measure the abundance of mature miRNAs, approximately 250 ng of total RNA was reverse transcribed using the High Flex Buffer provided in a miScript II RT Kit (Qiagen) per the manufacturer's protocol (10 μL total reaction volume). For pri-miRNAs and mRNA, approximately 300 ng of total RNA was reverse transcribed using a qScript cDNA synthesis kit (10 μL total reaction volume, Quanta BioSciences). For all types of RNAs, 2 μL of the RT reaction was used for qPCR using SYBR Green Master Mix and a QuantStudio™ 5 Real-Time PCR System. Relative abundance of mature miRNAs was calculated by normalizing to RNU6, and relative abundance for pri-miRNAs and mRNAs was calculated by normalizing to 18S ribosomal RNA, using the […]. (12)"}},
  "data": [
    {"smiles": "C#CCN(CC(N)=O)C(=O)C[C@H](Cc1c[nH]c2ccccc12)NC(=O)[C@@H]1C[C@H](NC(=O)Cn2c(=O)[nH]c3ccccc3c2=O)CN1", "note": "[Compound 9]", "values": [
      {"measurement": "Kd", "setting": "[1]", "value": "40 ± 30", "unit": "nM"},
      {"measurement": "inhibition of miR-27a (comparison of 5, 7, 9, 10)", "setting": "[2]", "value": "inhibited miR-27a to a greater extent than 5 and 7"},
      {"measurement": "pri-miR-27a levels", "setting": "[2]; 48 h", "value": "increased"},
      {"measurement": "IC50", "setting": "[2]; 48 h, read-out: IC50 for reduction of mature miR-27a levels", "value": "~1000", "unit": "nM"}
    ]}
  ]
}
